Data from patent US9708314B2, “Heterocyclic amide compound” (NISSAN CHEMICAL INDUSTRIES, LTD., priority 2013, dated 2017).

Columns and labels:
Assay type in all cases: in vivo
[1] = system: transplanted Oryza sativa; experiment: Test Example 1: effect on crop, application before weed generation in submerged conditions; conditions: Seventeenth Table
From the text: [Test Example 1] Herbicidal Activity Test by Application Before Weed Generation in Submerged Conditions After alluvial soil was placed into 1/10000 are of Wagner pot, water was poured and mixed to form a submerged condition having a water depth of 4 cm. Seeds of Echinochloa oryzacola Vasing., Scirpus juncoides, and Monochoria vaginalis were sowed in a mixed manner in the above pot and thereafter 2.5 leaf stage Oryza sativa seedling was transplanted. On the day of sowing seeds, the emulsion agent containing the compound of the present invention prepared in accordance with Formulation Example 2 was diluted with water so as to be a predetermined herbicide amount and the diluted compound was applied to the surface of the water. The pot was placed in a greenhouse of 25° C. to 30° C. to grow plant. Three weeks after the herbicide application, effects on each plant were investigated in accordance with the following criteria. Criteria 5 Herbicidal ratio of 90% or more (almost completely withered) 4 Herbicidal ratio of 70% or more and less than 90% 3 Herbicidal ratio of 40% or more and less than 70% 2 Herbicidal ratio of 20% or more and less than 40% 1 Herbicidal ratio of 5% or more and less than 20% 0 Herbicidal ratio of 5% or less (almost no effect) A: Echinochloa oryzicola Vasing., B: Scirpus juncoides, C: Monochoria vaginalis, D: Leptochloa chinensis, E: Cyperus difformis, F: Digitaria ciliaris, G: Setaria viridis, H: Echinochloa crus-galli var. crus-galli, I: Avena fatua, J: Alopecurus myosuroides, K: Lolium multiflorum Lam., L: Apera spica-venti., M: Abutilon theophrasti, N: Amaranthus retroflexus, O: Chenopodium album, P: Stellaria media, Q: Galium spurium, R: Veronica persica, a: transplanted Oryza sativa, b: directly sowed Oryza sativa, c: Zea mays, d: Glycine max, e: Triticum aestivum, f: Beta vulgaris ssp. vulgaris, and g: Brassica campestris L. The application herbicide amount (g/ha) means an amount that a concentration is adjusted so that, when an application amount is converted into per hectare (1 ha), the herbicide is applied by the number of grams (g) of the described value.

[2] = system: directly sowed Oryza sativa; experiment: Test Example 4: effect on crop by application to foliage (diluvial soil, plastic box); conditions: Application herbicide amount 320 g/ha; effect on crop
Method in brief: (§1)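 Emulsion-formulated compound, diluted to a predetermined g/ha dose, applied by small sprayer to leaves and stems of 14-day-old seedlings grown in sterilized diluvial soil. Effect rated on 0–5 herbicidal-ratio scale three weeks on.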

[3] = system: Beta vulgaris ssp. vulgaris; experiment: as above; conditions: for f: Application herbicide amount 320 g/ha, effect on crop
Method in brief: as §1

Brassica campestris L. = experiment: as above; conditions: for g: Application herbicide amount 320 g/ha, effect on crop
Method in brief: as §1

Glycine max = experiment: as above; conditions: for c: Application herbicide amount 320 g/ha, effect on crop
Method in brief: as §1

Stellaria media = experiment: Test Example 4: herbicidal effect by application to foliage (diluvial soil, plastic box); conditions: Application herbicide amount 288 g/ha; foliage application
Method in brief: as §1

Amaranthus retroflexus = experiment: as above; conditions: Application herbicide amount 288 g/ha; foliage application
Method in brief: as §1

[4] = Application herbicide amount 320 g/ha
[5] = Application herbicide amount 288 g/ha, foliage application

Question: Which “a: transplanted Oryza sativa (effect on crop grade)” value (from here on “a: transplanted Oryza sativa”) [1, 4] does the source give for `Cc1nnc(NC(=O)c2ccc(C(F)(F)F)n3c(C(C)[S+](C)[O-])nnc23)o1` (centres unmarked) [1-079] here?
Answer: 4 (Herbicidal ratio of 70% or more and less than 90%)

Question: What about the d [2] of the same compound?
Answer: 5 (Herbicidal ratio of 90% or more (almost completely withered))

Question: And the f [3]?
Answer: 5 (Herbicidal ratio of 90% or more (almost completely withered))

Question: What about the g (Brassica campestris L.) of the same compound?
Answer: 5 (Herbicidal ratio of 90% or more (almost completely withered))

Question: And the c (Glycine max)?
Answer: 1 (Herbicidal ratio of 5% or more and less than 20%)

Question: For `Cc1nnc(NC(=O)c2ccc(C(F)(F)F)n3c(C(C)S(C)(=O)=O)nnc23)o1` (centres unmarked) [1-080], which “a: transplanted Oryza sativa” value [1, 4] is on record?
Answer: 4 (Herbicidal ratio of 70% or more and less than 90%)

Question: What about the d [2] of the same compound?
Answer: 5 (Herbicidal ratio of 90% or more (almost completely withered))

Question: And the f [3]?
Answer: 5 (Herbicidal ratio of 90% or more (almost completely withered))

Question: What about the g (Brassica campestris L.) of the same compound?
Answer: 5 (Herbicidal ratio of 90% or more (almost completely withered))

Question: And the c (Glycine max)?
Answer: 4 (Herbicidal ratio of 70% or more and less than 90%)

Question: What does the source list for `CSCCc1nnc2c(C(=O)Nc3nnc(C)o3)ccc(C(F)(F)F)n12` [1-083]?
Answer: a: transplanted Oryza sativa (effect on crop grade) [1, 4]: 0 (Herbicidal ratio of 5% or less (almost no effect)); d [2]: 4 (Herbicidal ratio of 70% or more and less than 90%); f [3]: 5 (Herbicidal ratio of 90% or more (almost completely withered)); g (Brassica campestris L.): 4 (Herbicidal ratio of 70% or more and less than 90%); c (Glycine max): 1 (Herbicidal ratio of 5% or more and less than 20%)

Question: For `Cc1nnc(NC(=O)c2ccc(C(F)(F)F)n3c(CC[S+](C)[O-])nnc23)o1` (centres unmarked) [1-084], which “a: transplanted Oryza sativa” value [1, 4] is on record?
Answer: 0 (Herbicidal ratio of 5% or less (almost no effect))

Question: And the d [2]?
Answer: 4 (Herbicidal ratio of 70% or more and less than 90%)

Question: What about the f [3] of the same compound?
Answer: 4 (Herbicidal ratio of 70% or more and less than 90%)

Question: And the g (Brassica campestris L.)?
Answer: 4 (Herbicidal ratio of 70% or more and less than 90%)

Question: And the c (Glycine max)?
Answer: 1 (Herbicidal ratio of 5% or more and less than 20%)

Question: `Cc1nnc(NC(=O)c2ccc(C(F)(F)F)n3c(CCS(C)(=O)=O)nnc23)o1` [1-085] was tested. Which “a: transplanted Oryza sativa” value [1, 4] did it give?
Answer: 3 (Herbicidal ratio of 40% or more and less than 70%)

Question: What about the d [2] of the same compound?
Answer: 4 (Herbicidal ratio of 70% or more and less than 90%)

Question: What about the f [3] of the same compound?
Answer: 4 (Herbicidal ratio of 70% or more and less than 90%)

Question: And the g (Brassica campestris L.)?
Answer: 4 (Herbicidal ratio of 70% or more and less than 90%)

Question: And the c (Glycine max)?
Answer: 3 (Herbicidal ratio of 40% or more and less than 70%)

Question: What does the source list for `Cc1nnc(NC(=O)c2ccc(C(F)(F)F)n3c(N(C)c4ccccc4)nnc23)o1` [1-086]?
Answer: a: transplanted Oryza sativa (effect on crop grade) [1, 4]: 5 (Herbicidal ratio of 90% or more (almost completely withered)); d [2]: 1 (Herbicidal ratio of 5% or more and less than 20%); f [3]: 5 (Herbicidal ratio of 90% or more (almost completely withered)); g (Brassica campestris L.): 4 (Herbicidal ratio of 70% or more and less than 90%); c (Glycine max): 1 (Herbicidal ratio of 5% or more and less than 20%)

Question: With `CCCSc1nnc2c(C(=O)Nc3nnc(C)o3)ccc(C(F)(F)F)n12` [1-087] as the compound, how does the “a: transplanted Oryza sativa” value [1, 4] read?
Answer: 0 (Herbicidal ratio of 5% or less (almost no effect))

Question: What about the d [2] of the same compound?
Answer: 4 (Herbicidal ratio of 70% or more and less than 90%)

Question: What about the f [3] of the same compound?
Answer: 5 (Herbicidal ratio of 90% or more (almost completely withered))

Question: What about the g (Brassica campestris L.) of the same compound?
Answer: 4 (Herbicidal ratio of 70% or more and less than 90%)

Question: What about the c (Glycine max) of the same compound?
Answer: 4 (Herbicidal ratio of 70% or more and less than 90%)

Question: For `Cc1nnc(NC(=O)c2ccc(C(F)(F)F)n3c(NC(C)C)nnc23)o1` [1-090], which “a: transplanted Oryza sativa” value [1, 4] is on record?
Answer: 0 (Herbicidal ratio of 5% or less (almost no effect))

Question: What about the d [2] of the same compound?
Answer: 4 (Herbicidal ratio of 70% or more and less than 90%)

Question: And the f [3]?
Answer: 5 (Herbicidal ratio of 90% or more (almost completely withered))

Question: What about the g (Brassica campestris L.) of the same compound?
Answer: 4 (Herbicidal ratio of 70% or more and less than 90%)

Question: And the c (Glycine max)?
Answer: 1 (Herbicidal ratio of 5% or more and less than 20%)

Question: What does the source list for `CC(C)Sc1nnc2c(C(=O)Nc3nnco3)ccc(C(F)(F)F)n12` [1-091]?
Answer: a: transplanted Oryza sativa (effect on crop grade) [1, 4]: 0 (Herbicidal ratio of 5% or less (almost no effect)); d [2]: 4 (Herbicidal ratio of 70% or more and less than 90%); f [3]: 5 (Herbicidal ratio of 90% or more (almost completely withered)); g (Brassica campestris L.): 5 (Herbicidal ratio of 90% or more (almost completely withered)); c (Glycine max): 2 (Herbicidal ratio of 20% or more and less than 40%)

Question: Which results are given for `CCC[S+]([O-])c1nnc2c(C(=O)Nc3nnc(C)o3)ccc(C(F)(F)F)n12` (centres unmarked) [1-092]?
Answer: a: transplanted Oryza sativa (effect on crop grade) [1, 4]: 3 (Herbicidal ratio of 40% or more and less than 70%); d [2]: 4 (Herbicidal ratio of 70% or more and less than 90%); f [3]: 5 (Herbicidal ratio of 90% or more (almost completely withered)); g (Brassica campestris L.): 3 (Herbicidal ratio of 40% or more and less than 70%); c (Glycine max): 1 (Herbicidal ratio of 5% or more and less than 20%)

Question: Which “a: transplanted Oryza sativa” value [1, 4] does the source give for `Cc1nnc(NC(=O)c2ccc(C(F)(F)F)n3c(SCC(C)C)nnc23)o1` [1-093] here?
Answer: 0 (Herbicidal ratio of 5% or less (almost no effect))

Question: And the d [2]?
Answer: 3 (Herbicidal ratio of 40% or more and less than 70%)

Question: And the f [3]?
Answer: 5 (Herbicidal ratio of 90% or more (almost completely withered))

Question: What about the g (Brassica campestris L.) of the same compound?
Answer: 3 (Herbicidal ratio of 40% or more and less than 70%)

Question: What about the c (Glycine max) of the same compound?
Answer: 4 (Herbicidal ratio of 70% or more and less than 90%)

Question: Which “a: transplanted Oryza sativa” value [1, 4] does the source give for `CCC(C)Sc1nnc2c(C(=O)Nc3nnc(C)o3)ccc(C(F)(F)F)n12` (centres unmarked) [1-094] here?
Answer: 0 (Herbicidal ratio of 5% or less (almost no effect))

Question: And the d [2]?
Answer: 3 (Herbicidal ratio of 40% or more and less than 70%)

Question: And the f [3]?
Answer: 5 (Herbicidal ratio of 90% or more (almost completely withered))

Question: What about the g (Brassica campestris L.) of the same compound?
Answer: 3 (Herbicidal ratio of 40% or more and less than 70%)

Question: What about the c (Glycine max) of the same compound?
Answer: 4 (Herbicidal ratio of 70% or more and less than 90%)

Question: Which results are given for `Cc1nnc(NC(=O)c2ccc(C(F)(F)F)n3c(SC(C)(C)C)nnc23)o1` [1-095]?
Answer: a: transplanted Oryza sativa (effect on crop grade) [1, 4]: 1 (Herbicidal ratio of 5% or more and less than 20%); d [2]: 3 (Herbicidal ratio of 40% or more and less than 70%); f [3]: 5 (Herbicidal ratio of 90% or more (almost completely withered)); g (Brassica campestris L.): 3 (Herbicidal ratio of 40% or more and less than 70%); c (Glycine max): 2 (Herbicidal ratio of 20% or more and less than 40%)

Question: Which results are given for `Cc1nnc(NC(=O)c2ccc(C(F)(F)F)n3c(N4CCOCC4)nnc23)o1` [1-096]?
Answer: a: transplanted Oryza sativa (effect on crop grade) [1, 4]: 3 (Herbicidal ratio of 40% or more and less than 70%); d [2]: 4 (Herbicidal ratio of 70% or more and less than 90%); f [3]: 5 (Herbicidal ratio of 90% or more (almost completely withered)); g (Brassica campestris L.): 5 (Herbicidal ratio of 90% or more (almost completely withered)); c (Glycine max): 4 (Herbicidal ratio of 70% or more and less than 90%)

Question: Which “a: transplanted Oryza sativa” value [1, 4] does the source give for `CC(C)c1nnc2c(C(=O)Nc3nnc(C(F)(F)F)o3)ccc(C(F)(F)F)n12` [1-100] here?
Answer: 0 (Herbicidal ratio of 5% or less (almost no effect))

Question: And the d [2]?
Answer: 1 (Herbicidal ratio of 5% or more and less than 20%)

Question: What about the f [3] of the same compound?
Answer: 3 (Herbicidal ratio of 40% or more and less than 70%)

Question: What about the g (Brassica campestris L.) of the same compound?
Answer: 0 (Herbicidal ratio of 5% or less (almost no effect))

Question: What about the c (Glycine max) of the same compound?
Answer: 0 (Herbicidal ratio of 5% or less (almost no effect))

Question: `COc1cccc(Nc2nnc3c(C(=O)Nc4nnc(C)o4)ccc(C(F)(F)F)n23)n1` [1-102] was tested. Which “a: transplanted Oryza sativa” value [1, 4] did it give?
Answer: 2 (Herbicidal ratio of 20% or more and less than 40%)

Question: And the d [2]?
Answer: 1 (Herbicidal ratio of 5% or more and less than 20%)

Question: And the f [3]?
Answer: 4 (Herbicidal ratio of 70% or more and less than 90%)

Question: What about the g (Brassica campestris L.) of the same compound?
Answer: 2 (Herbicidal ratio of 20% or more and less than 40%)

Question: And the c (Glycine max)?
Answer: 0 (Herbicidal ratio of 5% or less (almost no effect))

Question: `C=CCSc1nnc2c(C(=O)Nc3nnco3)ccc(C(F)(F)F)n12` [1-128] was tested. Which “P (Stellaria media) herbicidal effect grade” value (Stellaria media) did it give?
Answer: 5 (Herbicidal ratio of 90% or more (almost completely withered))

Question: And the “N (Amaranthus retroflexus) herbicidal effect grade” value (Amaranthus retroflexus)?
Answer: 3 (Herbicidal ratio of 40% or more and less than 70%)

Question: What about the “a: transplanted Oryza sativa” value ([1]; Application herbicide amount 288 g/ha) of the same compound?
Answer: 0 (Herbicidal ratio of 5% or less (almost no effect))

Question: And the “f (Beta vulgaris ssp. vulgaris) effect on crop grade” value [3, 5]?
Answer: 5 (Herbicidal ratio of 90% or more (almost completely withered))

Question: What about the “g (Brassica campestris L.) effect on crop grade” value (Brassica campestris L.; [5]) of the same compound?
Answer: 3 (Herbicidal ratio of 40% or more and less than 70%)

Question: And the “d (Glycine max) effect on crop grade” value (Glycine max; [5])?
Answer: 3 (Herbicidal ratio of 40% or more and less than 70%)
